This passage reports zone of inhibition results from ChEMBL document CHEMBL3044825, “Synthesis and in vitro microbial activities of amides of pyridoquinolone” (2011).

Format in all cases: functional
Common to all, as to settings: read-out: IZ

The subject of one assay is Candida albicans. The experiment in a line: Antifungal activity against Candida albicans at 100 ug/ml by cup-plate method.
Another assay has as its system Bacillus subtilis. The assay is described as follows: Antibacterial activity against Bacillus subtilis at 100 ug/ml by cup plate method.
The test system of the next assay is Staphylococcus aureus. The experiment in a line: Antibacterial activity against Staphylococcus aureus at 100 ug/ml by cup-plate method.
The subject of a further assay is Pseudomonas aeruginosa. The assay is described as follows: Antibacterial activity against Pseudomonas aeruginosa at 100 ug/ml by cup-plate method.
A further assay relates to Escherichia coli. The experiment in a line: Antibacterial activity against Escherichia coli at 100 ug/ml by cup-plate method.

On to `O=C(Nc1ccc(S(=O)(=O)Nc2ccc(Cl)cc2)cc1)c1cn(CCO)c2c(cc(O)c3ncccc32)c1=O`, for which the zone of inhibition at 100 µg/mL with Candida albicans is 0 mm; in the assay with Bacillus subtilis, 6 mm; in the assay with Staphylococcus aureus it was 0 mm; with Pseudomonas aeruginosa, 4 mm; in the assay with Escherichia coli it was 4 mm.

With `N#Cc1cc([N+](=O)[O-])ccc1NS(=O)(=O)c1ccc(NC(=O)c2cn(CCO)c3c(cc(O)c4ncccc43)c2=O)cc1`, the zone of inhibition at 100 µg/mL in the assay on Candida albicans was 2 mm; in the assay with Bacillus subtilis, 6 mm; in the assay on Staphylococcus aureus, 8 mm; in the assay on Pseudomonas aeruginosa, 8 mm; in the assay on Escherichia coli it was 6 mm.

Take `O=C(Nc1cccc([N+](=O)[O-])c1)c1cn(CCO)c2c(cc(Cl)c3ncccc32)c1=O`: the zone of inhibition at 100 µg/mL worked out at 3 mm with Candida albicans; 6 mm with Bacillus subtilis; 9 mm with Staphylococcus aureus; 9 mm in the assay on Pseudomonas aeruginosa; 9 mm in the assay with Escherichia coli.

As for `Cc1ccc(C)c(NC(=O)c2cn(CCO)c3c(cc(O)c4ncccc43)c2=O)c1`, the zone of inhibition at 100 µg/mL in the assay with Candida albicans was 2 mm; with Bacillus subtilis, 9 mm; in the assay with Staphylococcus aureus, 8 mm; with Pseudomonas aeruginosa, 8 mm; with Escherichia coli, 9 mm.

On to `COc1ccc(NC(=S)NC(=O)c2cn(CCO)c3c(cc(O)c4ncccc43)c2=O)cc1`, for which the zone of inhibition at 100 µg/mL is 2 mm with Candida albicans; 6 mm with Bacillus subtilis; 8 mm with Staphylococcus aureus; 8 mm with Pseudomonas aeruginosa; 8 mm with Escherichia coli.

On to `COc1ccccc1NC(=S)NC(=O)c1cn(CCO)c2c(cc(Cl)c3ncccc32)c1=O`, for which the zone of inhibition at 100 µg/mL with Candida albicans was 0 mm; in the assay with Bacillus subtilis, 6 mm; with Staphylococcus aureus, 0 mm; with Pseudomonas aeruginosa, 3 mm; in the assay on Escherichia coli, 5 mm.

Consider `N#Cc1cc([N+](=O)[O-])ccc1NS(=O)(=O)c1ccc(NC(=O)c2cn(CCO)c3c(cc(Cl)c4ncccc43)c2=O)cc1`, for which the zone of inhibition at 100 µg/mL with Candida albicans was determined as 2 mm; in the assay with Bacillus subtilis, 9 mm; in the assay with Staphylococcus aureus it was 8 mm; with Pseudomonas aeruginosa, 8 mm; in the assay with Escherichia coli it was 8 mm.

Turning to `Cc1ccc(NS(=O)(=O)c2ccc(NC(=O)c3cn(CCO)c4c(cc(O)c5ncccc54)c3=O)cc2)cc1`, the zone of inhibition at 100 µg/mL in the assay with Candida albicans turned out to be 0 mm; in the assay with Bacillus subtilis, 6 mm; in the assay with Staphylococcus aureus, 5 mm; in the assay with Pseudomonas aeruginosa, 0 mm; in the assay with Escherichia coli, 5 mm.

Turning to `O=C(Nc1ccc(Cl)cc1)c1cn(CCO)c2c(cc(Cl)c3ncccc32)c1=O`, the zone of inhibition at 100 µg/mL in the assay with Bacillus subtilis turned out to be 7 mm; in the assay on Pseudomonas aeruginosa, 6 mm; in the assay with Escherichia coli, 6 mm.

In the case of `COc1ccc(NS(=O)(=O)c2ccc(NC(=O)c3cn(CCO)c4c(cc(O)c5ncccc54)c3=O)cc2)cc1`, the zone of inhibition at 100 µg/mL in the assay on Candida albicans was found to be 4 mm; in the assay with Bacillus subtilis, 11 mm; in the assay with Staphylococcus aureus, 10 mm; in the assay on Pseudomonas aeruginosa it was 8 mm; in the assay on Escherichia coli, 8 mm.

As for `O=C(Nc1ccc(S(=O)(=O)Nc2cccc(Cl)c2)cc1)c1cn(CCO)c2c(cc(Cl)c3ncccc32)c1=O`, the zone of inhibition at 100 µg/mL with Candida albicans turned out to be 4 mm; with Bacillus subtilis it was 9 mm; with Staphylococcus aureus it was 11 mm; with Pseudomonas aeruginosa it was 10 mm; with Escherichia coli, 10 mm.

As for `Cc1ccc(C)c(NS(=O)(=O)c2ccc(NC(=O)c3cn(CCO)c4c(cc(Cl)c5ncccc54)c3=O)cc2)c1`, the zone of inhibition at 100 µg/mL with Candida albicans was found to be 4 mm; in the assay with Bacillus subtilis, 9 mm; in the assay with Staphylococcus aureus, 10 mm; in the assay with Pseudomonas aeruginosa, 10 mm; with Escherichia coli, 10 mm.

Consider `O=C(Nc1cccc(Cl)c1)c1cn(CCO)c2c(cc(Cl)c3ncccc32)c1=O`, for which the zone of inhibition at 100 µg/mL was 3 mm with Candida albicans; 9 mm with Bacillus subtilis; 8 mm in the assay with Staphylococcus aureus; 7 mm in the assay with Pseudomonas aeruginosa; 7 mm in the assay on Escherichia coli.

In the case of `O=C(Nc1ccc(S(=O)(=O)Nc2cccc([N+](=O)[O-])c2)cc1)c1cn(CCO)c2c(cc(Cl)c3ncccc32)c1=O`, the zone of inhibition at 100 µg/mL was 2 mm with Candida albicans; 8 mm with Bacillus subtilis; 6 mm in the assay on Staphylococcus aureus; 5 mm in the assay with Pseudomonas aeruginosa; 7 mm in the assay with Escherichia coli.

Take `Cc1ccc(NC(=O)c2cn(CCO)c3c(cc(Cl)c4ncccc43)c2=O)cc1`: the zone of inhibition at 100 µg/mL in the assay with Candida albicans came to 0 mm; in the assay on Bacillus subtilis it was 7 mm; in the assay on Staphylococcus aureus it was 5 mm; in the assay on Pseudomonas aeruginosa, 5 mm; with Escherichia coli it was 4 mm.

As for `O=C(Nc1ccc(Cl)cc1)c1cn(CCO)c2c(cc(O)c3ncccc32)c1=O`, the zone of inhibition at 100 µg/mL in the assay on Candida albicans turned out to be 5 mm; with Bacillus subtilis, 10 mm; in the assay with Escherichia coli, 10 mm.

Regarding `O=C(Nc1ccc([N+](=O)[O-])cc1)c1cn(CCO)c2c(cc(Cl)c3ncccc32)c1=O`, the values for the zone of inhibition at 100 µg/mL with Candida albicans and in the assay on Escherichia coli were 4 mm and 9 mm, respectively.

With `C[C@@H]1[C@H](O)[C@@H](C)/C=C/C=C/C=C/C=C/C=C/C=C/C=C/[C@H](O[C@@H]2O[C@H](C)[C@@H](O)[C@H](N)[C@@H]2O)C[C@@H]2O[C@](O)(C[C@@H](O)C[C@@H](O)[C@H](O)CC[C@@H](O)C[C@@H](O)CC(=O)O[C@H]1C)C[C@H](O)[C@H]2C(=O)O` [AMPHOTERICIN B], in the assay on Candida albicans, the zone of inhibition at 100 µg/mL came to 9 mm.

For the molecule `COc1ccccc1NS(=O)(=O)c1ccc(NC(=O)c2cn(CCO)c3c(cc(Cl)c4ncccc43)c2=O)cc1`, the zone of inhibition at 100 µg/mL with Pseudomonas aeruginosa and in the assay with Escherichia coli was 5 mm throughout.

With `O=C(NC(=S)Nc1ccccc1[N+](=O)[O-])c1cn(CCO)c2c(cc(Cl)c3ncccc32)c1=O`, the zone of inhibition at 100 µg/mL with Candida albicans was 4 mm; in the assay with Bacillus subtilis it was 9 mm; in the assay with Escherichia coli, 10 mm.

For `O=C(NC(=S)Nc1ccccc1)c1cn(CCO)c2c(cc(O)c3ncccc32)c1=O`, the zone of inhibition at 100 µg/mL was determined as 4 mm in the assay on Candida albicans and 10 mm in the assay with Pseudomonas aeruginosa.

For the molecule `O=C(Nc1ccccc1)c1cn(CCO)c2c(cc(Cl)c3ncccc32)c1=O`, the values for the zone of inhibition at 100 µg/mL with Candida albicans, with Staphylococcus aureus and in the assay with Escherichia coli were 5 mm, 12 mm and 12 mm, respectively.

As to `Cc1ccccc1NC(=O)c1cn(CCO)c2c(cc(O)c3ncccc32)c1=O`, the zone of inhibition at 100 µg/mL in the assay with Candida albicans was found to be 0 mm; in the assay with Escherichia coli it was 9 mm.

Regarding `O=C(Nc1ccccc1[N+](=O)[O-])c1cn(CCO)c2c(cc(Cl)c3ncccc32)c1=O`, the zone of inhibition at 100 µg/mL in the assay on Candida albicans is 4 mm; with Bacillus subtilis, 10 mm.

With `O=C(O)c1cn(C2CC2)c2cc(N3CCNCC3)c(F)cc2c1=O` [CIPROFLOXACIN], the zone of inhibition at 100 µg/mL in the assay with Bacillus subtilis was 16 mm; with Staphylococcus aureus, 17 mm; in the assay with Pseudomonas aeruginosa, 17 mm.
